Reference: PMC9056950, “Synthesis and biochemical evaluation of cephalosporin analogues equipped with chemical tethers” (RSC Advances, 2020)
≈ marks a conversion by molar mass, not a printed value.

Columns and labels:
PBP3 [1] = molecular target: T1, PBP3 (Escherichia coli, UniProt P0AD68); assay: biochemical; design: Thermal shift assay, Protein Thermal Shift dye, 3 uM E. coli PBP3, change in melting temperature; settings: read-out: Average DTm/°C
T1 construct: gene ftsI
T1 sequence (P0AD68 44-588): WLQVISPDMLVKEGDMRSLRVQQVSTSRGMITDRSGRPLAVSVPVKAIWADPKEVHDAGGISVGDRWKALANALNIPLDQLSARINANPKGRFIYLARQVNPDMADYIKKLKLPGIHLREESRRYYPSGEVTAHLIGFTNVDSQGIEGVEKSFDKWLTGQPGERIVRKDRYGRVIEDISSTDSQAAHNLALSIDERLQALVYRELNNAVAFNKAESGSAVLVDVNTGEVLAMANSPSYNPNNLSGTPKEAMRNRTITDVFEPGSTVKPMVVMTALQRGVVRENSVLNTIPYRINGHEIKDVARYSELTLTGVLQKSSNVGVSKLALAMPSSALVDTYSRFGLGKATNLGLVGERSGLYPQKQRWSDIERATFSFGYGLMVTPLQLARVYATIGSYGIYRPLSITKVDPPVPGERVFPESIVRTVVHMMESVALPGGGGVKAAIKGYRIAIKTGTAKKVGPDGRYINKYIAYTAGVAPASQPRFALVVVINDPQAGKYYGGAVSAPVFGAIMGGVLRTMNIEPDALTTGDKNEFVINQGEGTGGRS
Experimental: The thermal shift assay was carried out using the Protein Thermal Shift™ assay kit (Applied Biosystems). 3 μM of purified E. coli PBP3 was incubated with the β-lactam analogues at 300 μM concentration in a mixture containing the Protein Thermal Shift™ Dye. The samples were then heated in a StepOnePlus™ Real-Time PCR System from 25 to 95 °C at a rate of 1 °C min^−1. Tests were carried out in triplicate and the averages plotted as the negative first derivative vs. temperature. Reference wells, i.e. solutions consisting only of only PBP3 with dye, PBP3 only, and dye only, were used as controls. Melting temperature (Tm) values were determined with and without each compound, and the change in melting temperature (ΔTm) was obtained, Fig. 2. The thermal shift assay with PBP4 was carried out using the protocol described for PBP3, with the follow deriviatisation: 500 nM of purified Bacillus subtilis PBP4 was incubated with 50 μM of the β-lactam analogues. A thermal shift assay was used to investigate the binding of the cephalexin analogues to the therapeutic target, PBP, in vitro. This assay provides a fast and inexpensive method of detecting a ligand binding to a protein of interest. Briefly, the protein is gradually heated in the presence of a fluorescent dye that binds non-specifically to the hydrophobic surfaces. […] A change in the melting temperature (Tm) when the protein is heated in the presence of a ligand, indicates a protein–ligand interaction. […] The PBPs can be divided into two main categories: high molecular mass (HMM) and low molecular mass (LMM).[13] PBP3 was chosen as a representative HMM PBP, and PBP4 as a representative LMM PBP. Cephalexin (1) has been previously reported to show good binding affinities for both PBP3 and PBP4.[14] Penicillin (11) and cefpodoxime (12) were included as positive controls. A truncated version of the ftsI gene formed of residues W44-S588, encoding only the soluble domain, was amplified from E. coli BW25113. The resulting construct was inserted into the vector pBADnLIC2005,[40] introducing an N-terminal deca-histidine tag when expressed. The resulting vector was transformed into E. coli MC1061 for expression. Cultures for protein expression were grown in 1 L of Luria–Bertani (LB) broth at 37 °C on an orbital shaker. Expression was induced by addition of 0.01% L-arabinose during mid-log phase of growth. Cultures were further incubated for 16 h at 20 °C, then the cells were harvested by centrifugation. Cell pellets were resuspended in 50 mM KPi pH 7.8, 200 mM NaCl, 10 mM imidazole, 20% glycerol with 1 mM [compound left out] followed by sonication. The lysate was clarified by centrifugation before loading onto a HisTrap HF column (GE Healthcare). To remove any pre-bound ligands, refolding purification was performed by initially washing with the protein unfolding buffer [2 M guanidine HCl, 50 mM KPi (pH 7.8), 200 mM NaCl, 20% glycerol, and 20 mM imidazole] and then performing a gradient wash to the protein refolding buffer [50 mM KPi (pH 7.8), 200 mM NaCl, 20% glycerol, and 20 mM imidazole] before the elution of the protein using the elution buffer [50 mM KPi (pH 7.8), 200 mM NaCl, 20% glycerol, and 500 mM imidazole]. The eluted protein was buffer-exchanged to the buffer 50 mM KPi (pH 7.8), 200 mM NaCl using a HisTrap Desalting (GE Healthcare) column.

S. aureus = system: T2, S. aureus; design: species or system Staphylococcus aureus NCTC 6571; broth growth inhibition, OD600, fitted MIC from dose curve, TSB, 37 C; settings: 16 h; inhibitor
T2 construct: NCTC 6571
Experimental: Stock solutions of each compound were prepared in 50% DMSO/water at ×100 the final concentration. In a 96-well plate, 2 μL of the test compounds were added to each well. Each plate included the positive control (750 μg mL^−1 chloramphenicol), the negative control (50% DMSO/water) and media only wells. To each test well was then added 198 μL of the required bacteria stock (OD 0.05). E. coli assays were carried out using LB broth, S. aureus were carried out using tryptic soy broth (TSB). Plates were incubated at 37 °C and the OD600 was measured (Epoch 2 Microplate Spectrophotometer, BioTek) every 30 min over a 17 h period. Tests were carried out in triplicate, the background absorbance was removed using reference wells, and the averages were determined. Dose curves were plotting using the OD600 after 16 h growth vs. compound concentration. MICs were defined as the minimum concentration of compound at which no significant growth was observed after 16 h incubation. MIC values were determined using GraphPad Prism (version 8.3.0). The activity of 1–12 was investigated with growth assays against Staphylococcus aureus (NCTC 6571). S. aureus is a virulent Gram-positive pathogen that can cause a wide range of infections in humans.[29,30] Each compound was tested at 400–6 μM concentrations, with lower concentrations tested as required.

PBP3 [2] = molecular target: T1, PBP3; assay: thermal shift (Protein Thermal Shift dye); type: binding; settings: 3 μM PBP3, 300 μM ligand, 25-95 °C at 1 °C/min; Tm increased

| Compound | ΔTm at 300 µM (PBP3 [1]) [°C] | MIC (S. aureus, best-fit) (S. aureus) | ΔTm (PBP3 [2]) |
| --- | --- | --- | --- |
| CC1=C(C(=O)O)N2C(=O)[C@@H](NC(=O)[C@H](N)c3ccccc3)[C@H]2SC1 [compound 1, cephalexin] | 1.61 | 1.89e-05 M (≈ 6.57 µg/mL) |  |
| CC1=C(C(=O)O)N2C(=O)[C@@H](NC(=O)[C@H](NC(=O)COCC(=O)NCCOCCOCCOCCOCCNC(=O)CCCCCN3C(=O)C=CC3=O)c3ccccc3)[C@H]2SC1 [compound 2, (6R,7R)-7-((R)-30-(2,5-Dioxo-2,5-dihydro-1H-pyrrol-1-yl)-4,8,25-trioxo-2-phenyl-6,12,15,18,21-pentaoxa-3,9,24-triazatriacontanamido)-3-methyl-8-oxo-5-thia-1-azabicyclo[4.2.0]oct-2-ene-2-carboxylic acid] | 4.72 | 9.255e-05 M (≈ 81 µg/mL) | all of the analogues tested caused an increase in the Tm with PBP3 |
| CC1=C(C(=O)O)N2C(=O)[C@@H](NC(=O)[C@H](NC(=O)CCCCCN3C(=O)C=CC3=O)c3ccccc3)[C@H]2SC1 [compound 3, (6R,7R)-7-((R)-2-(6-(2,5-dioxo-2,5-dihyrdo-1H-pyrrol-1-yl)hexanamido)-2-phenylacetamido)-3-methyl-8-oxo-5-thia-1-azabicyclo[4.2.0]oct-2-ene-2-carboxylic acid] | 3 | ~ 5.580e-005 M | all of the analogues tested caused an increase in the Tm with PBP3 |
| C#CCCC(=O)N[C@@H](C(=O)N[C@@H]1C(=O)N2C(C(=O)O)=C(C)CS[C@H]12)c1ccccc1 [compound 4, (6R,7R)-3-Methyl-8-oxo-7-[(2R)-2-(pent-4-ynamido)-2-phenylacetamido]-5-thia-1-azabicyclo[4.2.0]oct-2-ene-2-carboxylic acid] | 3.01 | ~ 3.501e-005 M | all of the analogues tested caused an increase in the Tm with PBP3 |
| CC1=C(C(=O)O)N2C(=O)[C@@H](NC(=O)[C@H](NC(=O)CCCCC3CCSS3)c3ccccc3)[C@H]2SC1 (stereo partly drawn) [compound 5, (6R,7R)-7-[(2R)-2-[5-(1,2-Dithiolan-3-yl)pentanamido]-2-phenylacetamido]-3-methyl-8-oxo-5-thia-1-azabicyclo[4.2.0]oct-2-ene-2-carboxylic acid] | 3.01 | 2.493e-05 M (≈ 13.4 µg/mL) | all of the analogues tested caused an increase in the Tm with PBP3 |
| CC1=C(C(=O)O)N2C(=O)[C@@H](NC(=O)[C@H](NC(=O)CCCC(=O)ON3C(=O)CCC3=O)c3ccccc3)[C@H]2SC1 [compound 6, (6R,7R)-7-[(2R)-2-{5-[(2,5-Dioxopyrrolidin-1-yl)oxy]-5-oxopentanamido}-2-phenylacetamido]-3-methyl-8-oxo-5-thia-1-azabicyclo[4.2.0]oct-2-ene-2-carboxylic acid] | 3.21 | 8.29e-05 M (≈ 46.3 µg/mL) | all of the analogues tested caused an increase in the Tm with PBP3 |
| CC1=C(C(=O)O)N2C(=O)[C@@H](NC(=O)[C@H](NC(=O)CCCC(=O)O)c3ccccc3)[C@H]2SC1 [compound 7, (6R,7R)-7-[(2R)-2-(4-Carboxybutanamido)-2-phenylacetamido]-3-methyl-8-oxo-5-thia-1-azabicyclo[4.2.0]oct-2-ene-2-carboxylic acid] | 3.6 | 8.144e-05 M (≈ 37.6 µg/mL) | all of the analogues tested caused an increase in the Tm with PBP3 |
| CC(=O)N[C@@H](C(=O)N[C@@H]1C(=O)N2C(C(=O)O)=C(C)CS[C@H]12)c1ccccc1 [compound 8, (6R,7R)-7-[(2R)-2-Acetamido-2-phenylacetamido]-3-methyl-8-oxo-5-thia-1-azabicyclo[4.2.0]oct-2-ene-2-carboxylic acid] | 3.01 | ~ 5.897e-005 M | all of the analogues tested caused an increase in the Tm with PBP3 |
| CC1=C(C(=O)O)N2C(=O)[C@@H](NC(=O)[C@H](NC(=O)OC(C)(C)C)c3ccccc3)[C@H]2SC1 [compound 9, (6R,7R)-7-[(2R)-2-{[(Tert-butoxy)carbonyl]amino}-2-phenylacetamido]-3-methyl-8-oxo-5-thia-1-azabicyclo[4.2.0]oct-2-ene-2-carboxylic acid] | 1.61 | 1.097e-05 M (≈ 4.91 µg/mL) | all of the analogues tested caused an increase in the Tm with PBP3 |
| CC1=C(C(=O)O)N2C(=O)[C@@H](NC(=O)[C@H](NC(=O)CCCCN)c3ccccc3)[C@H]2SC1 [compound 10, (6R,7R)-7-[(2R)-2-(5-Aminopentanamido)-2-phenylacetamido]-3-methyl-8-oxo-5-thia-1-azabicyclo[4.2.0]oct-2-ene-2-carboxylic acid] | 2.81 | 5.135e-05 M (≈ 22.9 µg/mL) | all of the analogues tested caused an increase in the Tm with PBP3 |
| COCC1=C(C(=O)O)N2C(=O)[C@@H](NC(=O)/C(=N\OC)c3csc(N)n3)[C@H]2SC1 [compound 12, cefpodoxime] | 4.42 | 2.094e-05 M (≈ 8.95 µg/mL) |  |
